Here are results for five molecules from publication PMC8341922, “Glycosylated cyclophellitol-derived activity-based probes and inhibitors for cellulases” (RSC Chemical Biology, 2020).

The term Km denotes the concentration of substrate that gives half-maximal velocity.

In series [1] the target is T1, HiCel7B (Mycothermus thermophilus, UniProt P56680).
T1 construct: gene CEL7B; purified enzyme, gift from Novozymes; deglycosylated for crystals
T1 sequence (P56680 1-402): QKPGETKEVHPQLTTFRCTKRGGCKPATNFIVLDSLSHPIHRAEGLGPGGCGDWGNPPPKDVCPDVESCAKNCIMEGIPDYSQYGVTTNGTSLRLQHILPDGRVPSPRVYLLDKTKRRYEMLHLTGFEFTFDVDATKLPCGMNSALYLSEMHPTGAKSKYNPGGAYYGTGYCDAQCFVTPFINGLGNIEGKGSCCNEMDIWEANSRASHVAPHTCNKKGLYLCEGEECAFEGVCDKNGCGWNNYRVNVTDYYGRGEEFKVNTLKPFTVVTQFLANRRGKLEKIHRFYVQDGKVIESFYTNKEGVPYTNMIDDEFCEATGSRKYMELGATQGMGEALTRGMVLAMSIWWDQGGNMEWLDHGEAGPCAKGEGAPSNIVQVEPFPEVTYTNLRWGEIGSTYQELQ
Description: continuous fluorescence inhibition kinetics with 4MU-GG, kapp vs [inhibitor]; also intact MS and crystal structure. In kind it is biochemical. Conditions: covalent; 50 mM sodium phosphate pH 7, 25 °C; 50 μM 4MU-GG; corrected for substrate KM; nucleophile E197; read-out: HiCel7B / K I. From the text: continuous fluorescence inhibition kinetics with 4MU-GG, kapp vs [inhibitor]; also intact MS and crystal structure on HiCel7B

The target in series [2] is T1, HiCel7B. Description: continuous fluorescence inhibition kinetics with 4MU-GG, kapp vs [inhibitor]. In kind it is biochemical. As to conditions: covalent, 50 mM sodium phosphate pH 7, 25 °C, 50 μM 4MU-GG, corrected for substrate KM, read-out: HiCel7B / K I. From the text:
continuous fluorescence inhibition kinetics with 4MU-GG, kapp vs [inhibitor] on HiCel7B

The next series has as its target T2, CbhA (Aspergillus niger, UniProt Q9UVS9).
T2 construct: native, in xylan-grown A. niger secretome; about 60 kDa band
T2 sequence (Q9UVS9 18-452): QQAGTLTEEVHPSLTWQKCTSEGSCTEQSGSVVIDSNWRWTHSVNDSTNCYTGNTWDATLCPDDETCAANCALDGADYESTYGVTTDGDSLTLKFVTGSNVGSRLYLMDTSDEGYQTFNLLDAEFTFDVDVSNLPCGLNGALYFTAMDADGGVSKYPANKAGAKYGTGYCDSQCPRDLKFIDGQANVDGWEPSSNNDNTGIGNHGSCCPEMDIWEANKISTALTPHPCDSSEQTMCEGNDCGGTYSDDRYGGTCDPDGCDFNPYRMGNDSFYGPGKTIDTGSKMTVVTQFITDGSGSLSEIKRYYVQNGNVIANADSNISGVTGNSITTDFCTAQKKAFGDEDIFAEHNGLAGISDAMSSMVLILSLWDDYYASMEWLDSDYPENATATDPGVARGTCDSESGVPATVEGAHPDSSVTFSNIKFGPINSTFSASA
Description: biotin-avidin pulldown, label-free LC-MS/MS quantification. It counts as binding. As to conditions: covalent; labelled compound; native secretome, 37 °C, 2 h.

The next series addresses T3, CbhB (Aspergillus niger, UniProt Q9UVS8).
T3 construct: native, in xylan-grown A. niger secretome; about 80 kDa band
T3 sequence (Q9UVS8 22-536): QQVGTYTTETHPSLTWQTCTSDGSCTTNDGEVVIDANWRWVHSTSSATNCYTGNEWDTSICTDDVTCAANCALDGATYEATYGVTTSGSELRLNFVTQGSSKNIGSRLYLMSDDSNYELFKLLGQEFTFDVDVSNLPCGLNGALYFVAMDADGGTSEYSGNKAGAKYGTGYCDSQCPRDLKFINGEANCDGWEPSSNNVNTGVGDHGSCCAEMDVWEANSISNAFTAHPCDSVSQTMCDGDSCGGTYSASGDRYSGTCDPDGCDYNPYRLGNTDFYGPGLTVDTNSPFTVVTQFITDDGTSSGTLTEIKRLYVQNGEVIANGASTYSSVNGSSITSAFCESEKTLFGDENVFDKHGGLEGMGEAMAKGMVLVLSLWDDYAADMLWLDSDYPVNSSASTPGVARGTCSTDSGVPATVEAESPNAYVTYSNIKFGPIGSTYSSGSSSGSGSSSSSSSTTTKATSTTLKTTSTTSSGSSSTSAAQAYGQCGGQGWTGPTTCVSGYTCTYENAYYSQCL
The description is as above. As to conditions: covalent; labelled compound; native secretome, 37 °C, 2 h. In kind it is binding.

Another series concerns the target T4, XynC (Aspergillus niger, UniProt A2QFV7).
T4 construct: gene xlnC; native, in xylan-grown A. niger secretome; about 35 kDa band
The description is as above. In kind it is binding. Conditions: covalent; labelled compound; native secretome, 37 °C, 2 h.

Substrate in series [3]: Cc1cc(=O)oc2cc(O[C@@H]3O[C@H](CO)[C@@H](O[C@@H]4O[C@H](CO)[C@@H](O)[C@H](O)[C@H]4O)[C@H](O)[C@H]3O)ccc12
Description: fluorescence, 4-methylumbelliferone release. In kind it is biochemical, Mycothermus thermophilus. As to conditions: 50 mM sodium phosphate pH 7, 25 °C, corrected for inner filter effect. An excerpt:
fluorescence, 4-methylumbelliferone release on HiCel7B | The KM value for the interaction of HiCel7B with 4MU-GG under the assay conditions

Take `OC[C@@H]1C(O[C@@H]2O[C@H](CO)[C@@H](O)[C@H](O)[C@H]2O)C(O)C(O)[C@@H]2O[C@H]12` (stereo partly shown) [compound 1, Cellobiose configured cyclophellitol]: the KI (inactivation) at HiCel7B [1] was determined as 31 ± 4 µM.

As for `OC[C@@H]1C(O[C@@H]2O[C@H](CO)[C@@H](O[C@@H]3O[C@H](CO)[C@@H](O)[C@H](O)[C@H]3O)[C@H](O)[C@H]2O)C(O)C(O)[C@@H]2O[C@H]12` (stereo partly shown) [compound 5, inhibitor 5], the KI (inactivation) at HiCel7B [2] (compound also hydrolysed internally by the enzyme) came to 1.9 ± 0.3 µM. For `[N-]=[N+]=NCCOCCOCCOCC(=O)N[C@H]1[C@H](O)[C@@H](O)[C@H](O[C@H]2[C@H](O)[C@@H](O)[C@@H]3O[C@@H]3[C@@H]2CO)O[C@@H]1CO` [compound 13, probe 13], the KI (inactivation) on HiCel7B [2] was determined as 3.9 ± 0.3 µM. Regarding `O=C(CCCC[C@@H]1SC[C@@H]2NC(=O)N[C@@H]21)NCCOCCOCCOCC(=O)N[C@H]1[C@H](O)[C@@H](O)[C@H](O[C@H]2[C@H](O)[C@@H](O)[C@@H]3O[C@@H]3[C@@H]2CO)O[C@@H]1CO` [compound 15, probe 15], the “biotin-avidin pulldown, label-free LC-MS/MS quantification” value is “detected at elevated levels in the probe 15-treated samples relative to the negative control were CbhA” on CbhA; “detected at elevated levels in the probe 15-treated samples relative to the negative control were CbhA, CbhB” at CbhB; “relative to the negative control were CbhA, CbhB, and XynC” on XynC.

B1: HiCel7B (Mycothermus thermophilus) (protein)
chain: QKPGETKEVHPQLTTFRCTKRGGCKPATNFIVLDSLSHPIHRAEGLGPGGCGDWGNPPPKDVCPDVESCAKNCIMEGIPDYSQYGVTTNGTSLRLQHILPDGRVPSPRVYLLDKTKRRYEMLHLTGFEFTFDVDATKLPCGMNSALYLSEMHPTGAKSKYNPGGAYYGTGYCDAQCFVTPFINGLGNIEGKGSCCNEMDIWEANSRASHVAPHTCNKKGLYLCEGEECAFEGVCDKNGCGWNNYRVNVTDYYGRGEEFKVNTLKPFTVVTQFLANRRGKLEKIHRFYVQDGKVIESFYTNKEGVPYTNMIDDEFCEATGSRKYMELGATQGMGEALTRGMVLAMSIWWDQGGNMEWLDHGEAGPCAKGEGAPSNIVQVEPFPEVTYTNLRWGEIGSTYQELQ
notes: purified enzyme, gift from Novozymes; deglycosylated for crystals
B1: in series [3], the Michaelis constant (Km) came to 76 µM.
